{
  "source": "patent US20230264009A1",
  "about": "“DISINFECTING CAP KIT FOR LUER ACCESS DEVICES” (SterileCare Inc., priority 2022, published 2023)",
  "key": {"[1]": {"test_system": "Staphylococcus epidermidis SK9 biofilm", "assay": "FBEC index, checkerboard dilution on biofilms", "type": "cell-based", "conditions": "S. epidermidis SK9 biofilm", "protocol": "(§3) In step (4), microtiter plates are incubated at 37° C. for 24 h. then (6), after incubation, the bacterial and fungal cells were dislodged from the pegs into the recovery medium described above.\n(§4) Three 10-µL aliquots, for a total of 30 µL from each well of recovery medium, were spotted on MH agar plates and incubated for 24 h at 37° C. […] The FBEC determination is a modification of the FICI."}, "[2]": {"test_system": "Staphylococcus aureus ON89", "assay": "Checkerboard titration, FICI", "type": "cell-based", "conditions": "S. aureus ON89", "experimental": "(§1) A fourth composition and solution included tetrasodium EDTA with ethanol or chlorhexidine HCl. This fourth composition and solution were created using checkerboard titration methods using micro broth dilution in 96-well microtiter plates. The concentrations of antimicrobials used were based on previously determined MIC values. Briefly, 200 µL of two-fold dilutions of tetrasodium EDTA and ethanol or chlorhexidine HCl were prepared in MH or MH II broth with standardized cell suspension. […] Microtiter plates were incubated at 37° C. for 24 h, and the results were analyzed. Each test was performed in duplicate and included a growth control without adding any antimicrobials."}, "[3]": {"test_system": "Pseudomonas aeruginosa SK1", "assay": "Checkerboard titration, FICI", "type": "cell-based", "conditions": "P. aeruginosa SK1", "experimental": "as §1"}, "[4]": {"test_system": "Escherichia coli SK2 biofilm", "assay": "FBEC index, checkerboard dilution on biofilms", "type": "cell-based", "conditions": "E. coli SK2 biofilm", "protocol": "as §3, §4"}, "E. coli SK2 [5]": {"test_system": "E. coli SK2", "assay": "MBC/MFC determination", "type": "cell-based, Escherichia coli", "conditions": "alone", "experimental": "(§2) An assay was made using a minimum inhibitory concentration (MIC) and minimum bactericidal concentration (MBC) and minimum fungicidal concentration (MFC) determination. The MIC was determined by the micro broth dilution method in 96-well plates. Serial two-fold dilutions of tetrasodium EDTA (from 2% to 0.015%), ethanol (from 50% to 0.1%) and chlorhexidine HCl (from 100 µg/mL to 0.025 µg/mL) were prepared in MH broth with a final volume of 90 µL per well. A 10 µL containing 1 × 10^5 bacterial cells or 2 × 10^3 fungal cells were added to each well. The inoculated plates were covered with a lid, sealed with Parafilm, and incubated for 24 h at 37° C. with slight rocking on a tilting platform shaker. After incubation, the optical density at 600 nm (OD 600 ) of the cultures in each well was measured using an xMark™ Microplate Absorbance Spectrophotometer (Bio-Rad). […] MBCs and MFCs were determined by transferring 100 µL from each well with no apparent growth onto appropriate agar plates, followed by incubation for 24 h at 37° C."}, "[6]": {"test_system": "48-h old biofilms of test organisms", "assay": "Rapid biofilm eradication, 2 h exposure", "type": "cell-based", "conditions": "alone at the MBEC", "experimental": "Determining rapid biofilm eradication by tetrasodium EDTA, ethanol, and chlorhexidine HCl alone and in combination was performed. After biofilm formation, control pegs (n = 6) were removed and analyzed to determine the starting biofilm cell numbers via the drop dilution method. The 48-h old biofilms on the pegs were exposed to different concentrations of test antimicrobials, dissolved in an appropriate growth medium, for two h to evaluate their efficacy alone and in combination. Antimicrobial solutions tested against each organism included each agent alone at the MBEC, double combinations at the FBEC, and triple combinations ranging from 5 to 20% ethanol, 2.5-5 µg/mL chlorhexidine HCl and 1- 3% tetrasodium EDTA. Following treatment, pegs were washed twice with sterile PBS, and the biofilm cells were dislodged into recovery medium and enumerated as described above.\nThe method for rapid biofilm eradication ability of test antimicrobials alone and in combination against 48-h-old biofilms within two h exposure time included (1) choosing different concentrations of test antimicrobials to assess their potency in eradicating preformed biofilms of study organisms within two h. Then (2) the quantitative recovery from biofilms following exposure to the antimicrobial solutions for bacterial strains (FIGS. 6A-6C) and fungal strains (FIG. 7) was evaluated."}, "MRSA ON184": {"test_system": "MRSA ON184", "assay": "MIC, micro broth dilution", "type": "cell-based, Staphylococcus aureus", "conditions": "alone, 24 h", "experimental": "as §2"}, "[7]": {"test_system": "Stenotrophomonas maltophilia ON17", "assay": "MBC/MFC determination", "type": "cell-based", "conditions": "alone; S. maltophilia ON17", "experimental": "as §2"}, "Proteus mirabilis ON153": {"test_system": "Proteus mirabilis ON153", "assay": "MBC/MFC determination", "type": "cell-based", "conditions": "alone; P. mirabilis ON153", "experimental": "as §2"}, "[8]": {"test_system": "Staphylococcus aureus ON89", "assay": "MBC/MFC determination", "type": "cell-based", "conditions": "alone; S. aureus ON89", "experimental": "as §2"}, "[9]": {"test_system": "Staphylococcus epidermidis ON170", "assay": "MBC/MFC determination", "type": "cell-based", "conditions": "alone; S. epidermidis ON170", "experimental": "as §2"}, "Candida albicans SK4b": {"test_system": "Candida albicans SK4b", "assay": "MBC/MFC determination", "type": "cell-based", "conditions": "alone; C. albicans SK4b", "experimental": "as §2"}, "Serratia marcescens SK2": {"test_system": "Serratia marcescens SK2", "assay": "MBC/MFC determination", "type": "cell-based", "conditions": "alone; S. marcescens SK2", "experimental": "as §2"}, "[10]": {"test_system": "Pseudomonas aeruginosa SK1", "assay": "MBC/MFC determination", "type": "cell-based", "conditions": "alone; P. aeruginosa SK1", "experimental": "as §2"}, "Escherichia coli ON29": {"test_system": "Escherichia coli ON29", "assay": "MBC/MFC determination", "type": "cell-based", "conditions": "alone; E. coli ON29", "experimental": "as §2"}, "S. epidermidis SK9": {"test_system": "S. epidermidis SK9", "assay": "Checkerboard titration, FICI", "type": "cell-based, Staphylococcus epidermidis", "experimental": "as §1"}, "[11]": {"test_system": "Staphylococcus aureus ON89 biofilm", "assay": "FBEC index, checkerboard dilution on biofilms", "type": "cell-based", "conditions": "S. aureus ON89 biofilm", "protocol": "as §3, §4"}, "E. coli SK2 [12]": {"test_system": "E. coli SK2", "assay": "Checkerboard titration, FICI", "type": "cell-based, Escherichia coli", "experimental": "as §1"}, "C. albicans ON47 biofilm": {"test_system": "C. albicans ON47 biofilm", "assay": "FBEC index, checkerboard dilution on biofilms", "type": "cell-based, Candida albicans", "protocol": "as §3, §4"}, "MRSA ON184 biofilm": {"test_system": "MRSA ON184 biofilm", "assay": "FBEC index, checkerboard dilution on biofilms", "type": "cell-based, Staphylococcus aureus", "protocol": "as §3, §4"}, "[13]": {"test_system": "Candida albicans SK4b biofilm", "assay": "FBEC index, checkerboard dilution on biofilms", "type": "cell-based", "conditions": "C. albicans SK4b biofilm", "protocol": "as §3, §4"}, "[14]": {"conditions": "tetrasodium EDTA + chlorhexidine HCl"}},
  "data": [
    {"smiles": "O=C([O-])CN(CCN(CC(=O)[O-])CC(=O)[O-])CC(=O)[O-].[Na+].[Na+].[Na+].[Na+]", "note": "[EDTA, tetrasodium EDTA]", "values": [
      {"measurement": "FBEC (concentration in combination)", "setting": "[1]; [14]", "result": 0.125, "unit": "% w/v"},
      {"measurement": "FBEC (concentration in combination)", "setting": "[1]; tetrasodium EDTA + ethanol", "result": 0.031, "unit": "% w/v"},
      {"measurement": "Concentration in combination giving FICI", "setting": "[2]; [14]", "result": 0.008, "unit": "% w/v"},
      {"measurement": "Concentration in combination giving FICI", "setting": "[2]; tetrasodium EDTA + ethanol", "result": 0.015, "unit": "% w/v"},
      {"measurement": "Concentration in combination giving FICI", "setting": "[3]; [14]", "result": 0.5, "unit": "% w/v"},
      {"measurement": "Concentration in combination giving FICI", "setting": "[3]; tetrasodium EDTA + ethanol", "result": 0.031, "unit": "% w/v"},
      {"measurement": "FBEC (concentration in combination)", "setting": "[4]; [14]", "result": 0.031, "unit": "% w/v"},
      {"measurement": "FBEC (concentration in combination)", "setting": "[4]; tetrasodium EDTA + ethanol", "result": 0.125, "unit": "% w/v"},
      {"measurement": "MBC/MFC", "setting": "E. coli SK2 [5]", "result": 0.5, "unit": "% w/v"},
      {"measurement": "Eradication of preformed biofilms", "setting": "[6]", "result": "failed to eradicate"},
      {"measurement": "MIC", "setting": "MRSA ON184", "result": 0.063, "unit": "% w/v"},
      {"measurement": "MBC/MFC", "setting": "[7]", "result": 1, "unit": "% w/v"},
      {"measurement": "MBC/MFC", "setting": "Proteus mirabilis ON153", "result": 2, "unit": "% w/v"},
      {"measurement": "MBC/MFC", "setting": "[8]", "result": 1, "unit": "% w/v"},
      {"measurement": "MBC/MFC", "setting": "[9]", "result": 0.5, "unit": "% w/v"},
      {"measurement": "MBC/MFC", "setting": "Candida albicans SK4b", "result": 1, "unit": "% w/v"},
      {"measurement": "MBC/MFC", "setting": "Serratia marcescens SK2", "result": 2, "unit": "% w/v"},
      {"measurement": "MBC/MFC", "setting": "[10]", "result": 1, "unit": "% w/v"},
      {"measurement": "MBC/MFC", "setting": "Escherichia coli ON29", "result": 1, "unit": "% w/v"},
      {"measurement": "Concentration in combination giving FICI", "setting": "S. epidermidis SK9; [14]", "result": 0.015, "unit": "% w/v"},
      {"measurement": "Concentration in combination giving FICI", "setting": "S. epidermidis SK9; tetrasodium EDTA + ethanol", "result": 0.015, "unit": "% w/v"},
      {"measurement": "FBEC (concentration in combination)", "setting": "[11]; [14]", "result": 0.125, "unit": "% w/v"},
      {"measurement": "FBEC (concentration in combination)", "setting": "[11]; tetrasodium EDTA + ethanol", "result": 0.063, "unit": "% w/v"},
      {"measurement": "Concentration in combination giving FICI", "setting": "E. coli SK2 [12]; [14]", "result": 0.008, "unit": "% w/v"},
      {"measurement": "Concentration in combination giving FICI", "setting": "E. coli SK2 [12]; tetrasodium EDTA + ethanol", "result": 0.015, "unit": "% w/v"},
      {"measurement": "FBEC (concentration in combination)", "setting": "C. albicans ON47 biofilm; [14]", "result": 0.031, "unit": "% w/v"},
      {"measurement": "FBEC (concentration in combination)", "setting": "C. albicans ON47 biofilm; tetrasodium EDTA + ethanol", "result": 0.125, "unit": "% w/v"},
      {"measurement": "FBEC (concentration in combination)", "setting": "MRSA ON184 biofilm; [14]", "result": 0.031, "unit": "% w/v"},
      {"measurement": "FBEC (concentration in combination)", "setting": "MRSA ON184 biofilm; tetrasodium EDTA + ethanol", "result": 0.063, "unit": "% w/v"},
      {"measurement": "FBEC (concentration in combination)", "setting": "[13]; [14]", "result": 0.063, "unit": "% w/v"},
      {"measurement": "FBEC (concentration in combination)", "setting": "[13]; tetrasodium EDTA + ethanol", "result": 0.125, "unit": "% w/v"}
    ]}
  ]
}
